From patent publication US20090306625A1, “TREATMENT SYSTEMS AND METHODS FOR RENAL-RELATED DISEASES” (AngioDynamics, Inc., priority 2007, published 2009)
Counter-ions that a name gives are not always drawn.

What was measured:
[1] = tested on: patients with moderate to severe underlying renal dysfunction; assay: Targeted renal therapy (intra-renal infusion) with fenoldopam mesylate in patients receiving a nephrotoxic radio-contrast agent; assay type: in vivo, human; conditions: TRT (intra-renal) delivery
Source text: TRT can be applied to patients with various agents in many clinical settings to mitigate acute kidney injury. For example, TRT can be applied with fenoldopam mesylate, a dopamine DI-like agonist vasodilator (CORLOPAM® brand of Fenoldopam Mesylate Injection). […] The increase in GFR can be seen in the setting of an insult to the kidneys in the form of a nephrotoxic radio-contrast agent.

septic patients = conditions: IV infusion 0.09 mcg/kg/min, average of one week or more, ICU; cited from earlier work

Oc1ccc(C2CNCCc3c2cc(O)c(O)c3Cl)cc1 (stereo not drawn) [fenoldopam mesylate]
effect on blood pressure [1]: no significant effect | increase in glomerular filtration rate (GFR) above baseline ([1]; nephrotoxic radio-contrast insult): approximately 25% | outcome in preventing kidney failure (septic patients): improved outcomes in preventing kidney failure
